Assay results taken from patent publication US8466088B2, “Herbicidal compositions containing benzoylpyrazole compounds” (Ishihara Sangyo Kaisha, Ltd., priority 2007, dated 2013).

Experiments:
[1] = system: crabgrass; experiment: Example 1: pot test, foliar treatment, visually observed growth inhibition of crabgrass; format: in vivo
[2] = system: velvetleaf; experiment: Example 1: pot test, foliar treatment, visually observed growth inhibition of velvetleaf; format: in vivo, Abutilon theophrasti MEDIC.
[3] = system: various plants; experiment: Example 1: pot test, foliar treatment, visually observed growth inhibition of other sown plants (Tables 5-1 to 5-137); format: in vivo; conditions: for Growth inhibition rate (%) of ivyleaf morningglory, Measured value: ivyleaf morningglory 1.5 to 2.1 leaf stage; for Growth inhibition rate (%) of prickly sida, Measured value: prickly sida 2.1 to 3.1 leaf stage, 20th day after application
Text: When the herbicidal activity in a case where two active ingredients are combined, is larger than the simple sum of the respective herbicidal activities of the two active ingredients (the expected activity), it is called a synergistic effect. The activity expected by the combination of two active ingredients can be calculated as follows (Colby S. R., “Weed”, vol. 15, p. 20-22, 1967). E=α+β−(α×β+100) where
α: growth inhibition rate when treated with x (g/ha) of herbicide X,
β: growth inhibition rate when treated with y (g/ha) of herbicide Y,
E: growth inhibition rate expected when treated with x (g/ha) of herbicide X and y (g/ha) of herbicide Y.
That is, when the actual growth inhibition rate (measured value) is larger than the growth inhibition rate by the above calculation (calculated value), the activity by the combination can be regarded as showing a synergistic effect.
Upland field soil was put into a 1/1,000,000 hectare pot, and seeds of various plants were sown. When the respective plants reached predetermined leaf stage, herbicidal compositions in predetermined amounts were diluted with water in an amount corresponding to 300 L/ha and applied for foliar treatment by a small sprayer.
On the 14th to 28th day after application, the state of growth of the respective plants was visually observed to determine the growth inhibition rate (measured value) in accordance with the following evaluation standard. Further, in accordance with the above Colby's formula, the growth inhibition rate (calculated value) was calculated. In Tables, with respect to the compound A, Compound Nos. in Table 1 or 3 are described, and with respect to other herbicidal compounds, common names are described.

[4] = 3.2 to 4.3 leaf stage, 21st day after application, 15 g/ha

## COCCOc1c(S(C)(=O)=O)ccc(C(=O)c2cnn(C)c2OC(=O)SC(C)(C)C)c1C [No. 241]
[1]; 3.1 to 4.0 leaf stage, 22nd day after application, 15 g/ha
  Growth inhibition rate (%) of crabgrass, Measured value: 90%
[1]; 3.2 to 4.1 leaf stage, 14th day after application, 15 g/ha
  Growth inhibition rate (%) of crabgrass, Measured value: 94%
[1]; 3.2 to 4.1 leaf stage, 21st day after application, 7 g/ha
  Growth inhibition rate (%) of crabgrass, Measured value: 80%
[1]; 3.2 to 4.1 leaf stage, 21st day after application, 15 g/ha
  Growth inhibition rate (%) of crabgrass, Measured value: 93%
[1]; 3.2 to 4.3 leaf stage, 14th day after application, 15 g/ha
  Growth inhibition rate (%) of crabgrass, Measured value: 93%
[1]; [4]
  Growth inhibition rate (%) of crabgrass, Measured value: 88%
[1]; 3.3 to 4.2 leaf stage, 24th day after application, 15 g/ha
  Growth inhibition rate (%) of crabgrass, Measured value: 75%
[1]; 3.5 to 4.2 leaf stage, 14th day after application, 15 g/ha
  Growth inhibition rate (%) of crabgrass, Measured value: 90%
[1]; 3.5 to 4.2 leaf stage, 20th day after application, 1.875 g/ha
  Growth inhibition rate (%) of crabgrass, Measured value: 30%
[1]; 3.5 to 4.2 leaf stage, 20th day after application, 3.75 g/ha
  Growth inhibition rate (%) of crabgrass, Measured value: 68%
[1]; 3.7 to 4.6 leaf stage, 21st day after application, 7 g/ha
  Growth inhibition rate (%) of crabgrass, Measured value: 80%
[1]; 3.7 to 4.6 leaf stage, 21st day after application, 15 g/ha
  Growth inhibition rate (%) of crabgrass, Measured value: 94%
[1]; 4.0 to 5.0 leaf stage, 21st day after application, 7 g/ha
  Growth inhibition rate (%) of crabgrass, Measured value: 60%
[1]; 4.0 to 5.0 leaf stage, 21st day after application, 15 g/ha
  Growth inhibition rate (%) of crabgrass, Measured value: 80%
[2]; 2.5 to 3.3 leaf stage, 21st day after application, 7 g/ha
  Growth inhibition rate (%) of velvetleaf, Measured value: 65%
[2]; 2.5 to 3.3 leaf stage, 21st day after application, 15 g/ha
  Growth inhibition rate (%) of velvetleaf, Measured value: 80%
[2]; 2.6 to 3.3 leaf stage, 20th day after application, 7 g/ha
  Growth inhibition rate (%) of velvetleaf, Measured value: 70%
[2]; 2.8 to 3.6 leaf stage, 24th day after application, 3.75 g/ha
  Growth inhibition rate (%) of velvetleaf, Measured value: 45%
[2]; 3.0 to 4.0 leaf stage, 21st day after application, 7 g/ha
  Growth inhibition rate (%) of velvetleaf, Measured value: 60%
[2]; 3.0 to 4.0 leaf stage, 21st day after application, 15 g/ha
  Growth inhibition rate (%) of velvetleaf, Measured value: 80%
[2]; [4]
  Growth inhibition rate (%) of velvetleaf, Measured value: 85%
[2]; 3.3 to 4.3 leaf stage, 20th day after application, 3.75 g/ha
  Growth inhibition rate (%) of velvetleaf, Measured value: 45%
[2]; 3.3 to 4.3 leaf stage, 20th day after application, 15 g/ha
  Growth inhibition rate (%) of velvetleaf, Measured value: 80%
[2]; 4.0 to 4.4 leaf stage, 22nd day after application, 15 g/ha
  Growth inhibition rate (%) of velvetleaf, Measured value: 97%
[3]; 14th day after application, 75 g/ha
  Growth inhibition rate (%) of ivyleaf morningglory, Measured value: 88%
[3]; 23rd day after application, 100 g/ha
  Growth inhibition rate (%) of ivyleaf morningglory, Measured value: 85%
[3]; 50 g/ha
  Growth inhibition rate (%) of prickly sida, Measured value: 60%
[3]; 100 g/ha
  Growth inhibition rate (%) of prickly sida, Measured value: 60%
